# According to US9232796B2, “Herbicidal compositions comprising 4-amino-3-chloro-5-fluoro-6-(4-chloro-2-fluoro-3-methoxyphenyl) pyridine-2-carboxylic acid or a derivative thereof and acetyl-CoA carboxylase (ACCase) inhibitors” (DOW AGROSCIENCES LLC, priority 2012, dated 2016):
# Where “and” joins values, the source holds several entries; their conditions need not be identical. Equal values may be shown once.
# Key:
# Assay in all cases: Example II in-water applied, greenhouse, transplanted paddy rice weeds
# ECHCG = assay type: in vivo, Echinochloa crusgalli (L.) Beauv.
# Description: (§1) Applications were made by injecting with a pipetter appropriate amounts of the application solutions, individually and sequentially, into the aqueous layer of the paddy. Control plants were treated in the same manner with the solvent blank. Applications were made so that all treated plant material received the same concentrations of acetone and crop oil concentrate.
# (§2) The treated plants and control plants were placed in a greenhouse as described above and water was added as needed to maintain a paddy flood. After approximately 3 weeks the condition of the test plants as compared with that of the untreated plants was determined visually and scored on a scale of 0 to 100 percent where 0 corresponds to no injury or growth inhibition and 100 corresponds to complete kill.
# (§3) Colby's equation was used to determine the herbicidal effects expected from the mixtures (Colby, S. R. 1967. Calculation of the synergistic and antagonistic response of herbicide combinations. Weeds 15:20-22.).
# (§4) The following equation was used to calculate the expected activity of mixtures containing two active ingredients, A and B: Expected=A+B−(A×B/100)
# SCPJU = assay type: in vivo, Schoenoplectus juncoides (Roxb.) Palla
# Description: (§5) Weed seeds or nutlets of the desired test plant species were planted in puddled soil (mud) prepared by mixing a shredded, non-sterilized mineral soil (50.5 percent silt, 25.5 percent clay, and 24 percent sand, with a pH of about 7.6 and an organic matter content of about 2.9 percent) and water at a 1:1 volumetric ratio. The prepared mud was dispensed in 365 mL aliquots into 16-ounce (oz.) non-perforated plastic pots with a surface area of 86.59 square centimeters (cm^2) leaving a headspace of 3 centimeters (cm) in each pot. Mud was allowed to dry overnight prior to planting or transplanting. Rice seeds were planted in Sun Gro MetroMix® 306 planting mixture, which typically has a pH of 6.0 to 6.8 and an organic matter content of about 30 percent, in plastic plug trays. Seedlings at the second or third leaf stage of growth were transplanted into 860 mL of mud contained in 32-oz. non-perforated plastic pots with a surface area of 86.59 cm^2 4 days prior to herbicide application. The paddy was created by filling the headspace of the pots with 2.5 to 3 cm of water. […] The plants were grown for 4-22 days in a greenhouse with an approximate 14 hr. photoperiod which was maintained at about 29° C. during the day and 26° C. during the night. Nutrients were added as Osmocote® (19:6:12, N:P:K+minor nutrients) at 2 g per 16-oz. pot and 4 g per 32-oz. pot. Water was added on a regular basis to maintain the paddy flood, and supplemental lighting was provided with overhead metal halide 1000-Watt lamps as necessary. The plants were employed for testing when they reached the first through fourth true leaf stage.
# (§6) Treatments consisted of the acid or esters of 4-amino-3-chloro-5-fluoro-6-(4-chloro-2-fluoro-3-methoxy-phenyl)pyridine-2-carboxylic acid (compound A) each formulated as an SC (suspension concentrate) and various herbicidal components alone and in combination.
# (§7) For formulated compounds, a measured amount was placed in an individual 100 or 200 mL glass vial and was dissolved in a volume of 1.25% (v/v) Agri-Dex® crop oil concentrate to obtain application solutions.
# as §1, §2, §3, §4
# SCPMA = assay type: in vivo, Schoenoplectus maritimus (L.) Lye
# Description: as §5, §6, §7, §1, §2, §3, §4
# ECHOR = assay type: in vivo, Echinochloa oryzoides (Ard.) Fritsch
# Description: as §5, §6, §7, §1, §2, §3, §4
compound,measurement,setting,value
"COc1c(Cl)ccc(-c2nc(C(=O)O)c(Cl)c(N)c2F)c1F [Compound A Acid, 4-amino-3-chloro-6-(4-chloro-2-fluoro-3-methoxyphenyl)-5-fluoropyridine-2-carboxylic acid]",Visual Weed Control (%) - 22 DAA ECHCG Obs,ECHCG; 16 gae/ha,20%
same,Visual Weed Control (%) - 22 DAA ECHCG Obs,ECHCG; 32 gae/ha,25%
same,Visual Weed Control (%) - 25 DAA SCPJU Obs,SCPJU; 8.75 gae/ha in-water,65%
same,Visual Weed Control (%) - 25 DAA SCPJU Obs,SCPJU; 17.5 gae/ha in-water,80%
same,Visual Weed Control (%) - 25 DAA SCPJU Obs,SCPJU; 35 gae/ha in-water,95%
same,Visual Weed Control (%) - 20 DAA SCPJU Obs,"SCPJU; in-water, 8.75 gae/ha",70%
same,Visual Weed Control (%) - 21 DAA SCPJU Obs,"SCPJU; in-water, 8.75 gae/ha",65%
same,Visual Weed Control (%) - 22 DAA SCPJU Obs,"SCPJU; in-water, 16 gae/ha",70%
same,Visual Weed Control (%) - 20 DAA SCPJU Obs,"SCPJU; in-water, 17.5 gae/ha",95%
same,Visual Weed Control (%) - 21 DAA SCPJU Obs,"SCPJU; in-water, 17.5 gae/ha",90%
same,Visual Weed Control (%) - 20 DAA SCPJU Obs,"SCPJU; in-water, 35 gae/ha",95%
same,Visual Weed Control (%) - 21 DAA SCPMA Obs,SCPMA; 35 gae/ha,0%
same,Visual Weed Control (%) - 25 DAA ECHOR Obs,ECHOR; 8.75 gae/ha in-water,0%
same,Visual Weed Control (%) - 25 DAA ECHOR Obs,ECHOR; 17.5 gae/ha in-water,0%
same,Visual Weed Control (%) - 25 DAA ECHOR Obs,ECHOR; 35 gae/ha in-water,40%
same,Visual Weed Control (%) - 21 DAA ECHOR Obs,"ECHOR; in-water, 8.75 gae/ha",0%
same,Visual Weed Control (%) - 21 DAA ECHOR Obs,"ECHOR; in-water, 10.6 gae/ha",0%
same,Visual Weed Control (%) - 21 DAA ECHOR Obs,"ECHOR; in-water, 21.2 gae/ha",15%
same,Visual Weed Control (%) - 21 DAA ECHOR Obs,"ECHOR; in-water, 35 gae/ha",15% and 30%
same,Visual Weed Control (%) - 21 DAA ECHOR Obs,"ECHOR; in-water, 42.4 gae/ha",15%
same,Visual Weed Control (%) - 21 DAA ECHOR Obs,"ECHOR; in-water, Compound A Acid 8.75 gae/ha",10%
same,Visual Weed Control (%) - 21 DAA ECHOR Obs,"ECHOR; in-water, Compound A Acid 17.5 gae/ha",15%
same,Visual Weed Control (%) - 21 DAA ECHOR Obs,"ECHOR; in-water, Compound A Acid 35 gae/ha",20%
"COc1c(Cl)ccc(-c2nc(C(=O)OCc3ccccc3)c(Cl)c(N)c2F)c1F [Compound A Benzyl Ester, benzyl ester of 4-amino-3-chloro-5-fluoro-6-(4-chloro-2-fluoro-3-methoxy-phenyl)pyridine-2-carboxylic acid]",Visual Weed Control (%) - 21 DAA ECHCG Obs,ECHCG; 4.38 gae/ha,15%
same,Visual Weed Control (%) - 22 DAA ECHCG Obs,ECHCG; 8 gae/ha,50%
same,Visual Weed Control (%) - 22 DAA ECHCG Obs,ECHCG; 16 gae/ha,60%
same,Visual Weed Control (%) - 21 DAA ECHCG Obs,ECHCG; 17.5 gae/ha,75%
same,Visual Weed Control (%) - 22 DAA ECHCG Obs,ECHCG; 32 gae/ha,99%
same,Visual Weed Control (%) - 21 DAA SCPJU Obs,"SCPJU; in-water, 4.38 gae/ha",70%
same,Visual Weed Control (%) - 19 DAA SCPMA Obs,SCPMA; 35 gae/ha,0%
same,Visual Weed Control (%) - 21 DAA ECHOR Obs,"ECHOR; in-water, 4.38 gae/ha",0%
same,Visual Weed Control (%) - 21 DAA ECHOR Obs,"ECHOR; in-water, 8 gae/ha",10% and 8%
same,Visual Weed Control (%) - 21 DAA ECHOR Obs,"ECHOR; in-water, 8.75 gae/ha",10% and 15%
same,Visual Weed Control (%) - 25 DAA ECHOR Obs,"ECHOR; in-water, 8.75 gae/ha",85%
same,Visual Weed Control (%) - 25 DAA ECHOR Obs,"ECHOR; in-water, 17.5 gae/ha",90%
same,Visual Weed Control (%) - 25 DAA ECHOR Obs,"ECHOR; in-water, 35 gae/ha",100%
same,Visual Weed Control (%) - 21 DAA ECHOR Obs,"ECHOR; in-water, 48 gae/ha",78%
same,Visual Weed Control (%) - 21 DAA ECHOR Obs,"ECHOR; in-water, 96 gae/ha",80%
"CCCCOC(=O)[C@@H](C)Oc1ccc(Oc2ccc(C#N)cc2F)cc1 [Cyhalofop-butyl, butyl(2R)-2-[4-(4-cyano-2-fluorophenoxy)phenoxy]propanoate, reference compound]",Visual Weed Control (%) - 25 DAA SCPJU Obs,"SCPJU; 90 gai/ha, in-water",0%
same,Visual Weed Control (%) - 25 DAA SCPJU Obs,"SCPJU; 180 gai/ha, in-water",0%
same,Visual Weed Control (%) - 19 DAA SCPMA Obs,SCPMA; 180 gai/ha,0%
same,Visual Weed Control (%) - 25 DAA ECHOR Obs,"ECHOR; 90 gai/ha, in-water",0%
same,Visual Weed Control (%) - 25 DAA ECHOR Obs,"ECHOR; in-water, 90 gai/ha",0%
"C[C@@H](Oc1ccc(Oc2nc3ccc(Cl)cc3o2)cc1)C(=O)N(C)c1ccccc1F [Metamifop, (2R)-2-[4-[(6-chloro-2-benzoxazolyl)oxy]phenoxy]-N-(2-fluorophenyl)-N-methylpropanamide]",Visual Weed Control (%) - 21 DAA SCPJU Obs,"SCPJU; in-water, 75 gai/ha",0%
same,Visual Weed Control (%) - 21 DAA SCPJU Obs,"SCPJU; in-water, 150 gai/ha",0%
same,Visual Weed Control (%) - 21 DAA SCPMA Obs,SCPMA; 75 gai/ha,0%
same,Visual Weed Control (%) - 21 DAA SCPMA Obs,SCPMA; 150 gai/ha,0%
same,Visual Weed Control (%) - 21 DAA ECHOR Obs,"ECHOR; in-water, 50 gai/ha",20%
"CCC/C(=N\OCC(C)Oc1ccc(Cl)cc1)C1=C(O)CC(C2CCCSC2)CC1=O (centres unmarked) [Profoxydim, 2-[1-[[2-(4-chlorophenoxy)propoxy]imino]butyl]-3-hydroxy-5-(tetrahydro-2H-thiopyran-3-yl)-2-cyclohexen-1-one, reference compound]",Visual Weed Control (%) - 22 DAA ECHCG Obs,ECHCG; 50 gai/ha,30%
same,Visual Weed Control (%) - 22 DAA SCPJU Obs,"SCPJU; in-water, 50 gai/ha",0%
same,Visual Weed Control (%) - 22 DAA SCPJU Obs,"SCPJU; in-water, 100 gai/ha",0%
same,Visual Weed Control (%) - 21 DAA ECHOR Obs,"ECHOR; in-water, 25 gai/ha",0%
"CCOC(=O)[C@@H](C)Oc1ccc(Oc2cnc3cc(Cl)ccc3n2)cc1 [Quizalofop-p-ethyl, ethyl(2R)-2-[4-[(6-chloro-2-quinoxalinyl)oxy]phenoxy]propanoate, reference compound]",Visual Weed Control (%) - 21 DAA ECHCG Obs,ECHCG; 15 gai/ha,50%
same,Visual Weed Control (%) - 21 DAA ECHCG Obs,ECHCG; 30 gai/ha,100%
same,Visual Weed Control (%) - 21 DAA ECHOR Obs,"ECHOR; in-water, 15 gai/ha",0%
same,Visual Weed Control (%) - 21 DAA ECHOR Obs,"ECHOR; in-water, 30 gai/ha",60%
